Assay results published in US20260124213A1, “STAPHYLOCOCCUS AUREUS PBP4 INHIBITORS AND METHOD OF USE” (UNIVERSITY OF ROCHESTER, priority 2022, published 2026).
In brackets after ≈: the same amount, converted by molar mass. Several values for one entry are separate records, joined by “and”; a condition that tells them apart may be missing. Equal entries are not always repeated. Where two headings read alike, the source gives them in different places.

Key:
MRSA strain AH-2204 = assay: Broth microdilution antibiotic potentiation; format: cell-based, Staphylococcus aureus; details: Staphylococcus aureus, MRSA, AH-2204
Protocol: (§1) Broth Microdilution Method for Antibiotic Potentiation with MRSA Strains. Bacteria were cultured for 6 hours in CAMHB and sub-cultured to 5×10^5 CFU/mL in CAMHB. Subcultures were aliquoted (4 mL) into culture tubes and then inoculated with compound from 10 mM or 100 mM stock in DMSO to the desired concentration. […]. Bacteria treated with antibiotic alone served as the control. Samples from the secondary culture tubes were then aliquoted (200 μL) into the first row of wells of a 96-well microtiter plate. Rows 2-11 were filled (100 μL) with the remaining 4 mL of bacterial subculture containing the adjuvant. Row 12 was filled (100 μL) with uninoculated media. From row 1, 100 μL was transferred to row two and mixed 5-8 times before being transferred to row 3. This procedure was used to serial dilute the rest of the rows through 10. The microtiter plate was then covered in Press 'n Seal and incubated at 37° C.

[1] = tested on: MRSA strain ATCC BAA-1556; assay: Broth microdilution antibiotic potentiation; format: cell-based, Staphylococcus aureus; details: ATCC BAA-1556; for MIC: Staphylococcus aureus
Protocol: as §1

MRSA strain AH-1263 = assay: Broth microdilution antibiotic potentiation; format: cell-based, Staphylococcus aureus; details: AH-1263; for MIC: Staphylococcus aureus, MRSA
Protocol: as §1

USA300Δpbp4 = assay: MIC testing of antibiotics; format: cell-based, Staphylococcus aureus; details: for MIC: Staphylococcus aureus, read-out: Minimum inhibitory concentration
Protocol: (§2) Bacterial Strains and Chemicals. The bacterial strains used in these studies include: USA300, USA300Δpbp4, USA300Δpbp4 pPBP4, COL, COLn, COLnex, CRB, and CRBΔpbp4. S. aureus strain USA300 is a predominant cause of U.S. community-associated MRSA infections, whereas strain COL is a commonly studied hospital-associated MRSA strain. The S. aureus USA300 pbp4-null strain (USA300Δpbp4) and PBP4 complementation strain (USA300Δpbp4 pPBP4) have been previously described. […] All strains were grown in Mueller Hinton (MH) broth at 37° C., as indicated.
(§3) Prior to identifying new PBP4 inhibitors, a screening paradigm to identify existing molecules that reverse the antibiotic resistance profile of wild type cells to that of a pbp4 mutant was developed. To define screening conditions three strains were employed: 1) a wild type USA300 MRSA strain, 2) an isogenic pbp4 deletion strain, and 3) a complemented strain harboring a plasmid wildtype pbp4 copy. The antibiotic susceptibility profile of each strain was measured to determine the magnitude with which PBP4 affects resistance to various antibiotics (Table 1).

S. aureus strain USA300 = assay: microbe, parasite or virus in culture; format: cell-based, Staphylococcus aureus
Protocol: as §2, §3

USA300Δpbp4 pPBP4 = assay: microbe, parasite or virus in culture; format: cell-based; details: Staphylococcus aureus, read-out: Minimum inhibitory concentration
S. aureus strain CRB = assay: microbe, parasite or virus in culture; format: cell-based, Staphylococcus aureus; details: Staphylococcus aureus, read-out: BPR (ceftobiprole) MIC, Alone
Protocol: Fractional Inhibitory Concentration Index (FICI). Fractional inhibitory testing was performed in checkerboard format to determine whether putative PBP4 inhibitors potentiated the antimicrobial effects of β-lactams toward S. aureus strains USA300 and CRB, as previously described (Chojacnki, et al. Journal of Antimicrobial Chemotherapy, 2003, 52, 1). To do so, in triplicate 10^5 CFU of each strain (10 μL) was added to individual wells of a microtiter plate containing 90 μL MH media. […] Plates were incubated at 37° C. for 16-20 hour and the lowest concentration of each test agent that inhibited bacterial growth alone or in combination was determined by the naked eye. The fractional inhibitory concentration (FIC) index was calculated using the formula: FIC of A (MIC of drug A in combination/MIC of drug A alone)+FIC B ([…]/MIC of drug B alone). A synergistic interaction was defined as a FICI value of less than 0.5, an additive interaction was defined as a FICI value between 0.5 and 1.0, an indifferent interaction was defined as a FICI value between 1.0 and 4.0, and an antagonistic interaction was defined as a FICI value of more than 4.0.

COLnex = assay: MIC testing of antibiotics; format: cell-based; details: Staphylococcus aureus, read-out: Minimum inhibitory concentration
Protocol: as §2
(§4) Prioritized compounds were tested for their ability to reverse PBP4 mediated antibiotic resistance in another S. aureus background using three isogenic strains that became available during the study (generous gift from Dr. S. Chatterjee; University of Maryland). These strains included: 1) COLnex, which is a methicillin susceptible strain, 2) CRB, a methicillin/ceftobiprole resistant strain of COLnex that overproduces PBP4, and 3) CRBΔpbp4, a methicillin susceptible strain of CRB lacking the pbp4 gene.

CRBΔpbp4 = assay: MIC testing of antibiotics; format: cell-based; details: Staphylococcus aureus, read-out: Minimum inhibitory concentration
Protocol: as §2, §4

strain CRBΔpbp4 = assay: microbe, parasite or virus in culture; format: cell-based, Staphylococcus aureus; details: Staphylococcus aureus, read-out: BPR (ceftobiprole) MIC, Alone
CRB = assay: MIC testing of antibiotics; format: cell-based, Staphylococcus aureus; details: for MIC: Staphylococcus aureus, read-out: Minimum inhibitory concentration, CRB
Protocol: as §2, §4

[2] = read-out: Amoxicillin MIC, no compound (—)
[3] = Staphylococcus aureus, USA300, read-out: Minimum inhibitory concentration
[4] = read-out: Cefotaxime MIC, no compound (—)
[5] = read-out: Cephalothin MIC, no compound (—)
[6] = read-out: Imipenem MIC, no compound (—)
[7] = read-out: Piperacillin MIC, no compound (—)

Row | Compound | MIC (USA300Δpbp4) [µg/mL] | MIC (S. aureus strain USA300; [3]) [µg/mL] | MIC (USA300Δpbp4 pPBP4) [µg/mL] | MIC (COLnex) [µg/mL] | MIC (CRBΔpbp4) [µg/mL] | MIC (CRB) [µg/mL] | also measured
1 | CC1(C)S[C@@H]2[C@H](NC(=O)[C@H](N)c3ccc(O)cc3)C(=O)N2[C@H]1C(=O)O [Amoxicillin, amoxicillin] | – | – | – | – | – | – | MIC (MRSA strain AH-2204; [2]): 2 µg/mL; MIC [1, 2]: 8 µg/mL; Amoxicillin MIC, no compound (—) (MRSA strain AH-1263): 8 µg/mL; MIC (MRSA strain AH-1263; [2]): 4 µg/mL
2 | Nc1nc(/C(=N/O)C(=O)N[C@@H]2C(=O)N3C(C(=O)O)=C(/C=C4\CCN([C@@H]5CCNC5)C4=O)CS[C@H]23)ns1 [BPR, ceftobiprole] | 0.25 (≈ 0.468 µM) | 0.5 (≈ 0.935 µM) | 0.5 (≈ 0.935 µM) | 0.25 (≈ 0.468 µM) | 0.25 (≈ 0.468 µM) | 128 (≈ 239 µM) | MIC (S. aureus strain CRB): 128 µg/mL; MIC (strain CRBΔpbp4): 0.25 µg/mL (≈ 0.468 µM); Minimum inhibitory concentration (CRB; CRB): >128 µg/mL
3 | O=C(O)c1cn(C2CC2)c2cc(N3CCNCC3)c(F)cc2c1=O [CIP, ciprofloxacin] | 1 (≈ 3.02 µM) | – | – | 0.25 (≈ 0.754 µM) | 0.25 (≈ 0.754 µM) | 0.5 (≈ 1.51 µM) | Minimum inhibitory concentration (USA300Δpbp4; USA300Δpbp4): 1 µg/mL (≈ 3.02 µM); MIC (S. aureus strain USA300; Staphylococcus aureus, USA300; read-out: Minimum inhibitory concentration): 4 µg/mL (≈ 12.1 µM); Minimum inhibitory concentration (S. aureus strain USA300; USA300): 4 µg/mL (≈ 12.1 µM)
4 | CO/N=C(\C(=O)N[C@@H]1C(=O)N2C(C(=O)O)=C(COC(C)=O)CS[C@H]12)c1csc(N)n1 [Cefotaxime, cefotaxime] | – | – | – | – | – | – | Cefotaxime MIC, no compound (—) [1]: 32 µg/mL; MIC [1, 4]: 16 µg/mL; Cefotaxime MIC, no compound (—) (MRSA strain AH-1263): 32 µg/mL; MIC (MRSA strain AH-1263; [4]): 16 µg/mL
5 | CC(=O)OCC1=C(C(=O)O)N2C(=O)[C@@H](NC(=O)Cc3cccs3)[C@H]2SC1 [Cephalothin, cephalothin] | – | – | – | – | – | – | Cephalothin MIC, no compound (—) [1]: 16 µg/mL; MIC [1, 5]: 32 µg/mL; Cephalothin MIC, no compound (—) (MRSA strain AH-1263): 32 µg/mL; MIC (MRSA strain AH-1263; [5]): 16 µg/mL
6 | C[C@@H](O)[C@H]1C(=O)N2C(C(=O)O)=C(SCCN=CN)C[C@H]12 [Imipenem, imipenem] | – | – | – | – | – | – | MIC (MRSA strain AH-2204; [6]): 32 µg/mL; MIC [1, 6]: 32 µg/mL; MIC (MRSA strain AH-1263; [6]): 16 µg/mL
7 | C[C@H]1COc2c(N3CCN(C)CC3)c(F)cc3c(=O)c(C(=O)O)cn1c23 [LEV, levofloxacin] | 0.5 (≈ 1.38 µM) | 1 (≈ 2.77 µM) | 1 (≈ 2.77 µM) | 0.25 (≈ 0.692 µM) | 0.25 (≈ 0.692 µM) | 0.5 (≈ 1.38 µM) | –
8 | C[C@@H](O)[C@H]1C(=O)N2C(C(=O)O)=C(S[C@@H]3CN[C@H](C(=O)N(C)C)C3)[C@H](C)[C@H]12 [MER, meropenem] | 2 (≈ 5.22 µM) | 4 (≈ 10.4 µM) | 4 (≈ 10.4 µM) | 1 (≈ 2.61 µM) | 1 (≈ 2.61 µM) | 64 (≈ 167 µM) | Minimum inhibitory concentration (S. aureus strain USA300; USA300): 4 µg/mL (≈ 10.4 µM)
9 | CN(C)c1ccc(O)c2c1C[C@H]1C[C@H]3[C@H](N(C)C)C(O)=C(C(N)=O)C(=O)[C@@]3(O)C(O)=C1C2=O [MIN, minocycline] | 0.5 (≈ 1.09 µM) | 0.5 (≈ 1.09 µM) | 0.5 (≈ 1.09 µM) | 0.5 (≈ 1.09 µM) | 0.5 (≈ 1.09 µM) | 0.5 (≈ 1.09 µM) | –
10 | C/C(=C\C(=O)OCCCCCCCCC(=O)O)C[C@@H]1OC[C@H](C[C@@H]2O[C@H]2[C@@H](C)[C@H](C)O)[C@@H](O)[C@H]1O [MUP, mupirocin] | 0.125 (≈ 0.25 µM) | 0.125 (≈ 0.25 µM) | 0.125 (≈ 0.25 µM) | 0.03 (≈ 0.0599 µM) | 0.03 (≈ 0.0599 µM) | 0.03 (≈ 0.0599 µM) | –
11 | CCOc1ccc2ccccc2c1C(=O)N[C@@H]1C(=O)N2[C@@H]1SC(C)(C)[C@@H]2C(=O)O [NAF, nafcillin] | 4 (≈ 9.65 µM) | 8 (≈ 19.3 µM) | 8 (≈ 19.3 µM) | 0.25 (≈ 0.603 µM) | 0.25 (≈ 0.603 µM) | > 128 | Minimum inhibitory concentration (S. aureus strain USA300; USA300): 8 µg/mL (≈ 19.3 µM)
12 | CC1(C)S[C@@H]2[C@H](NC(=O)Cc3ccccc3)C(=O)N2[C@H]1C(=O)O [Penicillin G, penicillin G] | – | – | – | – | – | – | Penicillin G MIC, no compound (—) (MRSA strain AH-1263): 16 µg/mL and 8 µg/mL
13 | CCN1CCN(C(=O)N[C@@H](C(=O)N[C@@H]2C(=O)N3[C@@H]2SC(C)(C)[C@@H]3C(=O)O)c2ccccc2)C(=O)C1=O [Piperacillin, piperacillin] | – | – | – | – | – | – | MIC (MRSA strain AH-2204; [7]): 4 µg/mL; MIC [1, 7]: 16 µg/mL; MIC (MRSA strain AH-1263; [7]): 16 µg/mL
14 | NC[C@H]1O[C@H](O[C@H]2[C@H](O)[C@@H](O[C@H]3O[C@H](CO)[C@@H](O)[C@H](N)[C@H]3O)[C@H](N)C[C@@H]2N)[C@H](N)C[C@@H]1O [TOB, tobramycin] | 1 (≈ 2.14 µM) | 1 (≈ 2.14 µM) | 1 (≈ 2.14 µM) | 0.06 (≈ 0.128 µM) | 0.06 (≈ 0.128 µM) | 0.06 (≈ 0.128 µM) | –
15 | colistin | – | – | – | – | – | – | Minimum inhibitory concentration (S. aureus strain USA300; USA300): 128 µg/mL
